Laboratory results from article PMC7558399, “In Vitro Selective Growth-Inhibitory Activities of Phytochemicals, Synthetic Phytochemical Analogs, and Antibiotics against Diarrheagenic/Probiotic Bacteria and Cancer/Normal Intestinal Cells” (Pharmaceuticals, 2020).
Values after ≈ are worked out from the molar mass of the structure shown. Where two headings read alike, the source gives them in different places.

Assays:
Format in all cases: cell-based
[1] = tested on: Vibrio parahaemolyticus (ATCC 17802); assay: Broth microdilution MIC, V. parahaemolyticus; details: ATCC17802, growth inhibited by ≥80%, read-out: MIC
[2] = tested on: Clostridium difficile (DSMZ 12056); assay: microbe, parasite or virus in culture; details: Clostridioides difficile, DSMZ12056, Clostridium difficile, read-out: MIC
[3] = tested on: Lactobacillus rhamnosus (CCM 7091); assay: Broth microdilution MIC, L. rhamnosus; details: Lacticaseibacillus rhamnosus, CCM7091; Lactobacillus rhamnosus; growth inhibited by ≥80%; read-out: MIC
[4] = tested on: HT29 (ATCC HTB 38) intestinal cancer cells; assay: MTT cytotoxicity assay, HT29; details: Homo sapiens, HT-29, HT29, MTT, 72 h; for IC50: read-out: IC50 ± SD; for IC80: read-out: IC80 ± SD (80% inhibitory concentration of proliferation)
[5] = tested on: Enterococcus faecalis (ATCC 29212); assay: Broth microdilution MIC, E. faecalis; details: ATCC29212, growth inhibited by ≥80%, read-out: MIC
[6] = tested on: Bacteroides fragilis (ATCC 25285); assay: Broth microdilution MIC, B. fragilis
[7] = tested on: Clostridium perfringens (DSMZ 11778); assay: microbe, parasite or virus in culture; details: DSMZ11778
[8] = tested on: Lactobacillus casei (DSMZ 20011); assay: Broth microdilution MIC, L. casei; details: Lacticaseibacillus casei, DSMZ20011; Lactobacillus casei; growth inhibited by ≥80%; read-out: MIC
[9] = tested on: Caco-2 (ATCC HTB 37) intestinal cancer cells; assay: MTT cytotoxicity assay, Caco-2; details: Homo sapiens, Caco-2, MTT, 72 h; for IC50: read-out: IC50 ± SD; for IC80: read-out: IC80 ± SD (80% inhibitory concentration of proliferation)
[10] = tested on: Lactobacillus reuteri (CCM 3625); assay: Broth microdilution MIC, L. reuteri; details: Limosilactobacillus reuteri, CCM3625; Lactobacillus reuteri; growth inhibited by ≥80%; read-out: MIC
[11] = tested on: Bifidobacterium breve (ATCC 15700); assay: Broth microdilution MIC, B. breve; details: ATCC15700, growth inhibited by ≥80%, read-out: MIC
[12] = tested on: Bacillus cereus (ATCC 14579); assay: Broth microdilution MIC, B. cereus; details: median/mode, read-out: MIC
[13] = tested on: E. coli 0175:H7 (NCTC 12900); assay: microbe, parasite or virus in culture; details: Escherichia coli, NCTC12900
[14] = tested on: FHs 74 Int (ATCC CCL 241) intestinal normal cells; assay: MTT cytotoxicity assay, FHs 74 Int; details: FHs 74 Int (intestinal normal cells), MTT, 72 h; for IC50 / IC80: FHs74Int; for IC50: read-out: IC50 ± SD; for IC80: read-out: IC80 ± SD (80% inhibitory concentration of proliferation)
[15] = tested on: Bifidobacterium longum ssp. longum (DSMZ 20219); assay: Broth microdilution MIC, B. longum ssp. longum; details: DSMZ20219; Bifidobacterium longum ssp. longum; growth inhibited by ≥80%; read-out: MIC
[16] = tested on: Bifidobacterium bifidum (ATCC 29521); assay: Broth microdilution MIC, B. bifidum; details: ATCC29521, growth inhibited by ≥80%, read-out: MIC
[17] = tested on: intestinal cancer cells (HT29 and Caco-2); assay: MTT cytotoxicity assay, mean for intestinal cancer cells; details: for IC50: mean of HT29 and Caco-2, >512 replaced with 1024, read-out: x¯ -CC ± SD: mean IC50 for intestinal cancer cells; for IC80: read-out: x¯ -CC ± SD: mean IC80 for intestinal cancer cells
[18] = tested on: Yersinia enterocolitica (ATCC 9610); assay: Broth microdilution MIC, Y. enterocolitica; details: ATCC9610, growth inhibited by ≥80%, read-out: MIC
[19] = tested on: probiotic bacteria (9 strains); assay: Broth microdilution MIC, probiotic bacteria as a group (mean or range over strains)
[20] = tested on: S. enterica ssp. enterica serovar Typhimurium (ATCC 14028); assay: Broth microdilution MIC, Salmonella Typhimurium; details: Salmonella Typhimurium, growth inhibited by ≥80%, read-out: MIC
[21] = tested on: Escherichia coli (ATCC 25922); assay: Broth microdilution MIC, E. coli; details: ATCC25922, growth inhibited by ≥80%, read-out: MIC
[22] = tested on: Listeria monocytogenes (ATCC 7644); assay: Broth microdilution MIC, L. monocytogenes; details: ATCC7644, growth inhibited by ≥80%, read-out: MIC
[23] = tested on: Shigella flexneri (ATCC 12022); assay: microbe, parasite or virus in culture; details: ATCC12022
[24] = tested on: Bifidobacterium adolescentis (DSMZ 20087); assay: Broth microdilution MIC, B. adolescentis; details: DSMZ20087, growth inhibited by ≥80%, read-out: MIC
[25] = tested on: Salmonella enterica ssp. enterica serovar Enteritidis (ATCC 13076); assay: Broth microdilution MIC, Salmonella Enteritidis; details: Salmonella Enteritidis, growth inhibited by ≥80%, read-out: MIC
[26] = tested on: Bifidobacterium animalis spp. lactis (DSMZ 10140); assay: Broth microdilution MIC, B. animalis spp. lactis; details: DSMZ10140; Bifidobacterium animalis spp. lactis; growth inhibited by ≥80%; read-out: MIC
[27] = tested on: diarrheagenic bacteria (12 strains); assay: organism not typed
[28] = mean of 9 strains, >512 replaced with 1024, read-out: x¯ -PB ± SD: mean MIC for probiotic bacteria
[29] = mean of 12 strains, >512 replaced with 1024, read-out: x¯ -DB ± SD: mean MIC for diarrheagenic bacteria

Row | SMILES | MIC [1] | MIC [3] | IC50 [4] | IC80 [4] | MIC [5] | MIC [7] | MIC [8] | IC50 [9] | IC80 [9] | MIC [10] | MIC [11] | MIC [13] | IC50 [14] | IC80 [14] | MIC [15] | MIC [16] | IC50 [17] | IC80 [17] | MIC [18] | MIC [19, 28] | also measured
1 | CO/N=C(\C(=O)N[C@@H]1C(=O)N2C(C(=O)O)=C(CSc3nc(=O)c(=O)[nH]n3C)CS[C@H]12)c1csc(N)n1 [CF, ceftriaxone sodium] | 0.125 µg/mL | 32 µg/mL | > 512 µg/mL | > 512 µg/mL | 512 µg/mL | 4 µg/mL | 32 µg/mL | > 512 µg/mL | > 512 µg/mL | 0.5 µg/mL | 32 µg/mL | 0.5 µg/mL | > 512 µg/mL | > 512 µg/mL | 8 µg/mL | 4 µg/mL | > 512 µg/mL | > 512 µg/mL | 0.25 µg/mL | 26.6 ± 38 µg/mL | MIC ([2]; […]): 64 µg/mL; MIC ([6]; ATCC25285): 128 µg/mL; MIC ([12]; ATCC14579, […]): 128 µg/mL; IC50 ± SD [14]: - (Not active (MIC/IC50/80 > 512 μg/mL, the value 1024 μg/mL was used for average calculation)); IC80 ± SD (80% inhibitory concentration of proliferation) [14]: - (Not active (MIC/IC50/80 > 512 μg/mL, the value 1024 μg/mL was used for average calculation)); MIC ([19]; Bifidobacterium breve and Bifidobacterium longum ssp. longum, read-out: MICs): 8 to 32 µg/mL; MIC ([19]; lactobacilli, range over strains, read-out: MICs): 0.5 to 32 µg/mL; MIC ([19]; remaining bifidobacteria (other than B. breve and B. longum ssp. longum), read-out: MICs): 1 to 4 µg/mL; MIC [20]: 0.25 µg/mL; MIC [21]: 0.062 µg/mL; MIC [22]: 32 µg/mL; MIC [23]: 0.5 µg/mL; MIC [24]: 1 µg/mL; MIC [25]: 0.25 µg/mL; MIC [26]: 2 µg/mL; MIC ([27]; all gram-negative diarrheagenic bacteria, range over strains, read-out: MICs): 0.062 to 0.5 µg/mL; MIC ([27]; gram-positive pathogens, range over strains, read-out: MICs): 4 to 512 µg/mL; MIC [27, 29]: 61.8 ± 141 µg/mL
2 | Oc1c(Cl)cc(Cl)c2cccnc12 [CLX, 5,7-dichloroquinolin-8-ol] | 16 µg/mL (≈ 74.7 µM) | 128 µg/mL (≈ 598 µM) | 3.7 ± 0.3 µg/mL (≈ 17.3 µM) | 5 ± 0.7 µg/mL (≈ 23.4 µM) | 16 µg/mL (≈ 74.7 µM) | 16 µg/mL (≈ 74.7 µM) | 128 µg/mL (≈ 598 µM) | 1.3 ± 0.04 µg/mL (≈ 6.07 µM) | 5.9 ± 0.7 µg/mL (≈ 27.6 µM) | 128 µg/mL (≈ 598 µM) | 64 µg/mL (≈ 299 µM) | 64 µg/mL (≈ 299 µM) | 0.5 ± 0.02 µg/mL (≈ 2.34 µM) | 2 ± 0.1 µg/mL (≈ 9.34 µM) | 64 µg/mL (≈ 299 µM) | > 512 µg/mL | 2.5 ± 1.2 µg/mL (≈ 11.7 µM) | 5.4 ± 0.5 µg/mL (≈ 25.2 µM) | 16 µg/mL (≈ 74.7 µM) | 245 ± 306 µg/mL (≈ 1150 µM) | MIC ([2]; growth inhibited by ≥80%): 8 µg/mL (≈ 37.4 µM); MIC ([6]; ATCC25285, growth inhibited by ≥80%, read-out: MIC): 32 µg/mL (≈ 149 µM); MIC ([12]; ATCC14579, growth inhibited by ≥80%): 8 µg/mL (≈ 37.4 µM); MIC [20]: 16 µg/mL (≈ 74.7 µM); MIC [21]: 16 µg/mL (≈ 74.7 µM); MIC [22]: 32 µg/mL (≈ 149 µM); MIC [23]: 16 µg/mL (≈ 74.7 µM); MIC [24]: 128 µg/mL (≈ 598 µM); MIC [25]: 64 µg/mL (≈ 299 µM); MIC [26]: 512 µg/mL (≈ 2390 µM); MIC [27, 29]: 24 ± 19 µg/mL (≈ 112 µM)
